Assay results: ChEMBL document CHEMBL1145701, “Spinonin, a novel glycoside from Ononis spinosa subsp. leiosperma” (1997)
≈ marks a conversion by molar mass, not a printed value. Calls of active or inactive are those of the source. The calls are words filed in the database; no cut-off is given here.

Legend:
KBVIN = assay: Cytotoxicity against human KBVIN cells in presence of vinblastine; assay type: functional, cell-based
Lu1 = assay: Cytotoxicity against human Lu1 cells; assay type: functional, cell-based
Pseudomonas aeruginosa = assay: Antimicrobial activity against Pseudomonas aeruginosa ATCC 9027 by paper-disk diffusion method; assay type: functional
[1] = target: Human immunodeficiency virus type 1 reverse transcriptase (Human immunodeficiency virus 1) (UniProt Q72547); assay: Inhibition of HIV1 reverse transcriptase
BC1 = assay: Cytotoxicity against human BC1 cells; assay type: functional, cell-based
SK-N-SH = assay: Cytotoxicity against human SK-N-SH cells […]; assay type: functional, cell-based
Streptococcus = assay: Antimicrobial activity against beta-hemolytic Streptococcus isolate 48 by paper-disk diffusion method; assay type: functional

Row | SMILES | Activity (KBVIN) | Activity (Lu1) | MIC (Pseudomonas aeruginosa) [µg/mL] | Activity [1] | Activity (BC1) | Activity (SK-N-SH) | MIC (Streptococcus) [µg/mL]
1 | O=C1C=C(c2ccc(O)cc2O[C@@H]2O[C@H](CO)[C@@H](O)[C@H](O)[C@H]2O)O[C@@H]1Cc1ccc(O)cc1 [SPINONIN] | inactive | inactive | 200 (≈ 434 µM) | inactive | inactive | inactive | –
2 | COc1ccc(-c2coc3cc(O[C@@H]4O[C@H](CO)[C@@H](O)[C@H](O)[C@H]4O)ccc3c2=O)cc1 [ONONIN] | – | – | – | – | – | – | 25 (≈ 58.1 µM)
3 | COc1ccc2c(c1)O[C@H]1c3ccc(O[C@@H]4O[C@H](CO)[C@@H](O)[C@H](O)[C@H]4O)cc3OC[C@@H]21 | – | – | 200 (≈ 463 µM) | – | – | – | –
